Measured values published in PubChem BioAssay (NCI).
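Cultured in 96-well plates, cells were exposed to test compound for 48 hours across five concentrations. Definition used: TGI = concentration required for complete inhibition of growth.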

Experiments:
Assay in all cases: growth of human tumour cells (NCI), 48 h
[1] = system: ACHN renal
[2] = system: HCC-2998 colon
[3] = system: OVCAR-8 ovarian
[4] = system: CCRF-CEM leukemia
[5] = system: SR leukemia
[6] = system: OVCAR-5 ovarian
[7] = system: HOP-92 NSCLC
[8] = system: HS 578T breast
[9] = system: U251 CNS
[10] = system: BT-549 breast
[11] = system: OVCAR-3 ovarian
[12] = system: UACC-62 melanoma
[13] = system: SK-OV-3 ovarian
[14] = system: 786-0 renal
[15] = system: SN12C renal
[16] = system: MCF7 breast
[17] = system: RPMI-8226 leukemia
[18] = system: SK-MEL-28 melanoma
[19] = system: SF-268 CNS
[20] = system: LOX IMVI melanoma
[21] = system: SF-539 CNS
[22] = system: CAKI-1 renal
[23] = system: MOLT-4 leukemia
[24] = system: OVCAR-4 ovarian
[25] = system: TK-10 renal
[26] = system: KM12 colon
[27] = system: SNB-19 CNS
[28] = system: UACC-257 melanoma
[29] = system: K-562 leukemia
[30] = system: COLO 205 colon
[31] = system: NCI-H522 lung
[32] = system: T-47D breast
[33] = system: HCT-116 colon
[34] = system: PC-3 prostate
[35] = system: HT29 colon
[36] = system: SF-295 CNS
[37] = system: MDA-MB-231 breast
[38] = system: HCT-15 colon
[39] = system: NCI/ADR-RES ovarian
[40] = system: IGROV1 ovarian
[41] = system: SK-MEL-5 melanoma
[42] = system: MALME-3M melanoma
[43] = system: SW-620 colon
[44] = system: SNB-75 CNS
[45] = system: HL-60(TB) leukemia
[46] = system: A549 NSCLC
[47] = system: NCI-H23 lung
[48] = system: DU-145 prostate
[49] = system: MDA-MB-435
[50] = system: M14 melanoma
[51] = system: HOP-62 NSCLC

Measured: TGI

CC1(C)CNC(=O)C2(CCCO2)CNC(C)(C)CNC(=O)C2(CCCO2)CN1 (stereo unspecified)
> 10 µM: [1] | [2] | [3] | [4] | [5] | [6] | [7] | [8] | [9] | [10] | [11] | [12] | [13] | [14] | [15] | [16] | [17] | [18] | [19] | [20] | [21] | [22] | [23] | [24] | [25] | [26] | [27] | [28] | [29] | [30] | [31] | [32] | [33] | [34] | [35] | [36] | [37] | [38] | [39] | [40] | [41] | [42] | [43] | [44] | [45] | [46] | [47] | [48] | [49] | [50] | [51]
